Measured values as given in patent US20240327334A1, “Covalent Inhibitors As Antiviral Agents” (Enanta Pharmaceuticals, Inc., priority 2022, published 2024).

Target: SARS-CoV-2 Papain-like (PLpro) protease (Severe acute respiratory syndrome coronavirus 2, UniProt P0DTD1)
Test: SARS-CoV-2 Papain-like (PLpro) protease biochemical enzyme inhibition assay (ubiquitin-fluorophore substrate, Ub-R110)
Settings: Ub-R110 substrate; run in duplicate; read-out: PLpro IC50

Compound	IC50 [nM]
O=C(C#CCNC(=O)C(=O)NCc1ccccc1C(=O)NC1(c2cc(-c3cnn(C4CC4)c3)cc(C(F)(F)F)c2)CC1)NC1CC1 [Example 534]	100 to 1000
N#CCNC(=O)C(=O)NCc1ccccc1C(=O)NC1(c2cc(-c3ccccc3)cc(C(F)(F)F)c2)CC1 [Example 468]	100 to 1000
N#Cc1ncc(C#CCNC(=O)C(=O)NCc2ccccc2C(=O)NC2(c3ccc4ccccc4c3)CC2)cn1 [Example 182]	> 10000
C#CCNC(=O)C(=O)NCc1ccccc1C(=O)NC1(c2cc(Cl)c3nn(C4CC4)cc3c2)CC1 [Example 339]	< 100
O=C(NC/C=C\c1nccs1)C(=O)NCc1ccccc1C(=O)NC1(c2ccc3ccccc3c2)CC1 [Example 401]	1000 to 10000
N#C[C@@H]1CCN1C(=O)C(=O)NCc1ccccc1C(=O)NC1(c2cccc3ccccc23)CC1 [Example 119]	1000 to 10000
CC(C)Oc1cccnc1C#C[C@H](C)NC(=O)C(=O)NCc1ccccc1C(=O)NC1(c2cc(F)cc(-c3cnn(C4CC4)c3)c2)CC1 [Example 268]	100 to 1000
N#CN1CC(CNC(=O)C(=O)NCc2ccccc2C(=O)NC2(c3ccc4ccccc4c3)CC2)C1 [Example 430]	100 to 1000
COC(=O)/C=C/CNC(=O)C(=O)NCC1C[C@H]1C(=O)N[C@H](C)c1cccc2ccccc12 (stereo partly shown) [Example 18]	1000 to 10000
COc1cc(C2(NC(=O)c3ccccc3CNC(=O)C(=O)NC/C=C/c3ccccn3)CC2)cc2cn(C3CC3)nc12 [Example 581]	100 to 1000
C[C@@H](NC(=O)c1ccccc1CNC(=O)C(=O)NC1(C#N)CC1)c1cccc2ccccc12 [Example 15]	> 10000
O=C(NC/C=C1\CCOC1=O)C(=O)NCc1ccccc1C(=O)NC1(c2ccc3ccccc3c2)CC1 [Example 162]	100 to 1000
N#Cc1ccc(C#CCNC(=O)C(=O)NCc2ccccc2C(=O)NC2(c3ccc4ccccc4c3)CC2)c(C(F)(F)F)c1 [Example 95]	100 to 1000
N#CN1CCC[C@@H]1CNC(=O)C(=O)NCc1ccccc1C(=O)NC1(c2cccc3ccccc23)CC1 [Example 508]	100 to 1000
N#CCNC(=O)C(=O)NCc1ccccc1C(=O)NC1(c2cc(C(F)(F)F)cc(C(F)(F)F)c2)CC1 [Example 45]	1000 to 10000
C[C@@H](C#Cc1ccc(C#N)cc1OC(F)(F)F)NC(=O)C(=O)NCc1ccccc1C(=O)NC1(c2ccc3ccccc3c2)CC1 [Example 208]	> 10000
N#CCNC(=O)C(=O)NCc1ccccc1C(=O)NC1(c2cccc3ccccc23)COC1 [Example 96]	> 10000
COc1ccc(C#C[C@H](C)NC(=O)C(=O)NCc2ccccc2C(=O)NC2(c3ccc4nn(C)cc4c3)CC2)c(C#N)c1 [Example 112]	< 100
CC(C)[C@@H](C#Cc1ccccn1)NC(=O)C(=O)NCc1ccccc1C(=O)NC1(c2ccc3ccccc3c2)CC1 [Example 207]	> 10000
CC#CC(=O)NNC(=O)C(=O)NCc1ccccc1C(=O)N[C@H](C)c1cccc2ccccc12 [Example 7]	> 10000
C[C@@H](C#Cc1ccc(C#N)cc1C#N)NC(=O)C(=O)NCc1ccccc1C(=O)NC1(c2ccc3nn(C)cc3c2)CC1 [Example 110]	1000 to 10000
COC(=O)/C=C/C1(NC(=O)C(=O)NCc2ccccc2C(=O)N[C@H](C)c2cccc3ccccc23)CC1 [Example 36]	> 10000
COC(=O)/C=C/CNC(=O)C(=O)NCc1ccccc1C(=O)N[C@H](C)c1cc(-c2ccccc2)cc(C(F)(F)F)c1 [Example 35]	< 100
C[C@@H](NC(=O)c1ccccc1CNC(=O)C(=O)NC/C=C/C(=O)N1CC[C@H](C#N)C1)c1cccc2ccccc12 [Example 550]	> 10000

Compound	IC50 [nM]
CN(C#N)NC(=O)C(=O)NCc1ccccc1C(=O)NC1(c2ccc(F)c3ccccc23)CC1 [Example 124]	1000 to 10000
N#Cc1ccc(C#CCNC(=O)C(=O)NCc2ccccc2C(=O)NC2(c3ccc4ccccc4c3)CC2)s1 [Example 92]	1000 to 10000
C[C@@H](C#Cc1nccs1)NC(=O)C(=O)NCc1ccccc1C(=O)NC1(c2cccc3c2ccn3C)CC1 [Example 531]	< 100
CNC(=O)/C=C/CNC(=O)C(=O)NCc1ccccc1C(=O)N[C@H](C)c1cccc2ccccc12 [Example 16]	1000 to 10000
O=C(NCC#Cc1nccs1)C(=O)NCc1ccccc1C(=O)NC1(c2cccc3nc(C4CC4)ccc23)CC1 [Example 390]	< 100
C[C@@H](NC(=O)c1ccccc1CNC(=O)C(=O)NCC#N)c1cc(-c2ccccc2)cc(C(F)(F)F)c1 [Example 34]	< 100
N#CCNC(=O)C(=O)NCc1ccccc1C(=O)NC1(c2ccc(F)c(OC(F)(F)F)c2)CC1 [Example 309]	1000 to 10000
CC(C)n1nccc1C#CCNC(=O)C(=O)NCc1ccccc1C(=O)NC1(c2cc(F)cc(-c3cnn(C4CC4)c3)c2)CC1 [Example 278]	100 to 1000
Cn1ccc2c(C3(NC(=O)c4ccccc4CNC(=O)C(=O)NCC#N)CC3)cccc21 [Example 533]	100 to 1000
C[C@@H](NC(=O)c1ccccc1CNC(=O)C(=O)NC/C=C/C(=O)N1CCCNC(=O)C1)c1cccc2ccccc12 [Example 549]	100 to 1000
CC(C)[C@@H](C#Cc1ccccn1)NC(=O)C(=O)NCc1ccccc1C(=O)NC1(c2ccc3nn(C)cc3c2)CC1 [Example 204]	> 10000
N#CCCNC(=O)C(=O)NCCc1ccccc1C(=O)NC1(c2ccc3ccccc3c2)CC1 [Example 368]	> 10000
COC(=O)/C=C/CCNC(=O)C(=O)NC(C)c1ccccc1C(=O)N[C@H](C)c1cccc2ccccc12 (stereo partly shown) [Example 51]	> 10000
O=C(NCC#Cc1ccc2c(c1)CNC2=O)C(=O)NCc1ccccc1C(=O)NC1(c2ccc3ccccc3c2)CC1 [Example 410]	100 to 1000
N#CCNC(=O)C(=O)NCCc1ccccc1C(=O)NC1(c2ccc3ccccc3c2)CC1 [Example 372]	> 10000
O=C(NC/C=C/c1ccccn1)C(=O)NCc1ccccc1C(=O)NC1(c2ccc3ccccc3c2)CC1 [Example 578]	100 to 1000
CC(C)(C)OC(=O)NNC(=O)/C=C/CNC(=O)C(=O)NCc1ccccc1C(=O)NC1(c2cccc3ccccc23)CC1 [Example 548]	100 to 1000
CC(NC(=O)C(=O)NCC#N)c1ccccc1C(=O)N[C@H](C)c1cccc2ccccc12 (stereo partly shown) [Example 50]	> 10000
N#CN1CC[C@@H]1CNC(=O)C(=O)NCc1ccccc1C(=O)NC1(c2cccc3ccccc23)CC1 [Example 498]	100 to 1000
C#CCNC(=O)C(=O)NCc1ccccc1C(=O)NC1(c2cc(Oc3cccc(C(F)(F)F)c3)cc(C(F)(F)F)c2)CC1 [Example 65]	> 10000
N#CCNC(=O)C(=O)NCc1ccccc1C(=O)NC1(c2cccc(Cl)c2Cl)CC1 [Example 378]	100 to 1000
Cc1nn(C)cc1-c1cc(Cl)cc(C2(NC(=O)c3ccccc3CNC(=O)C(=O)NCC#N)CC2)c1 [Example 482]	< 100
NC(=O)N1CC[C@H](CNC(=O)C(=O)NCc2ccccc2C(=O)NC2(c3cccc4ccccc34)CC2)C1 [Example 503]	1000 to 10000
C#CC(=O)NNC(=O)C(=O)Nc1ccccc1C(=O)N[C@H](C)c1cccc2ccccc12 [Example 26]	1000 to 10000

Compound	IC50 [nM]
N#CN1CC(NC(=O)C(=O)NCc2ccccc2C(=O)NC2(c3cccc4ccccc34)CC2)C1 [Example 436, N1-(1-cyanoazetidin-3-yl)-N2-(2-((1-(naphthalen-1-yl)cyclopropyl)carbamoyl)benzyl)oxalamide]	100 to 1000
COc1cc(C2(NC(=O)c3ccccc3CNC(=O)C(=O)NC[C@@H]3CCCN3)CC2)cc2cn(C3CC3)nc12 [Example 511]	1000 to 10000
N#CCNC(=O)C(=O)NCc1ccccc1C(=O)NC1(c2ccc(-c3ccc(F)cc3)cc2)CC1 [Example 542]	> 10000
N#CCNC(=O)C(=O)NCc1ccccc1C(=O)NC1(c2cccn3nccc23)CC1 [Example 405]	100 to 1000
CC(C)(O)Cn1cc(-c2cc(F)cc(C3(NC(=O)c4ccccc4CNC(=O)C(=O)NCC#N)CC3)c2)cn1 [Example 282]	100 to 1000
NC(=O)N1CC[C@H]1CNC(=O)C(=O)NCc1ccccc1C(=O)NC1(c2cccc3ccccc23)CC1 [Example 501]	1000 to 10000
O=C(NCc1ccccc1C(=O)NC1(c2ccc(F)c3ccccc23)CC1)C(=O)N[C@H]1CNC1=O [Example 122]	> 10000
C#C[C@H](C)NC(=O)C(=O)NCc1ccccc1C(=O)NC1(c2cc(F)cc(-c3cnn(C4CC4)c3)c2)CC1 [Example 141]	100 to 1000
C[C@@H](NC(=O)c1cc(F)cc(F)c1CNC(=O)C(=O)NCC#N)c1cccc2ccccc12 [Example 361]	> 10000
N#CCNC(=O)C(=O)NCc1ccccc1C(=O)NC1(c2cc(N3CCOC3=O)cc3ccccc23)CC1 [Example 317]	< 100
N#CCNC(=O)C(=O)NCc1c(Cl)cccc1C(=O)NC1(c2cc(-c3cnn(C4CC4)c3)cc3ccccc23)CC1 [Example 291]	> 10000
N#CCNC(=O)C(=O)NCc1ccccc1C(=O)NC1(c2cccc(-c3ccc(F)cc3)c2F)CC1 [Example 379]	< 100
Cn1cc2ccc(C3(NC(=O)c4ccccc4CNC(=O)C(=O)NCC#N)CC3)cc2n1 [Example 340]	100 to 1000
N#CCNC(=O)C(=O)NCc1ccccc1C(=O)NC1(c2ccc(Br)cc2)CC1 [Example 544]	1000 to 10000
Cn1cc2c(F)c(C3(NC(=O)c4ccccc4CNC(=O)C(=O)NCC#N)CC3)ccc2n1 [Example 332]	< 100
N#CCCCCNC(=O)C(=O)NCc1ccccc1C(=O)NC1(c2cc(Br)cc3ccccc23)CC1 [Example 421]	1000 to 10000
COc1cc(C2(NC(=O)c3ccccc3CNC(=O)C(=O)NC/C=C/c3cnccn3)CC2)cc2cn(C3CC3)nc12 [Example 579]	100 to 1000
N#CN1CC[C@H](CNC(=O)C(=O)NCc2ccccc2C(=O)NC2(c3cccc4ccccc34)CC2)C1 [Example 502]	100 to 1000
C=C(CNC(=O)C(=O)NCc1ccccc1C(=O)N[C@H](C)c1cccc2ccccc12)C(=O)O [Example 42]	> 10000
N#CCNC(=O)C(=O)NCc1ccc(C(=O)NC2CC2)cc1C(=O)NC1(c2ccc(F)c3ccccc23)CC1 [Example 116]	< 100
C[C@@H](C#Cc1ncco1)NC(=O)C(=O)NCc1ccccc1C(=O)NC1(c2cc(F)cc(-c3cnn(C4CC4)c3)c2)CC1 [Example 143]	1000 to 10000
C[C@@H](NC(=O)c1ccccc1CNC(=O)C(=O)NC/C=C/C(=O)O)c1cccc2ccccc12 [Example 14]	1000 to 10000
